{"source": "patent US6136803A", "about": "“Antidepressants” (Merrell Pharmaceuticals Inc., priority 1998, dated 2000)", "tested_on": "-adrenergic receptors (rat cerebral cortical membranes)", "conditions": "desipramine 5 mg/kg, i.p.; for [3H]-DHA Specifically Bound: six animals per group, mean ± SEM; for % Control ([3H]-DHA specifically bound): vs saline", "note": "Like-named read-outs stand apart in the source and are kept apart here.", "method": "The number of -adrenergic receptors in rat cerebral cortical membranes was measured after a 4 day and 14 day course of one of the following treatments:\na) saline control (intraperitoneal injection - i.p.)\nc) fluoxetine (10 mg/kg/day, i.p.) or (10 mg/kg bid, i.p.)\nMale Sprague-Dawley rats (175-200 g) were assigned randomly to one of the four treatment groups above and were treated as indicated for either 4 or 14 days. The animals were sacrificed 24 hours after their last treatment and cerebral cortical membranes were isolated. These membranes were assayed for -adrenergic receptor number by the method of Bylund and Snyder [Mol. Pharmacol. 12, 568 (1976)] by measuring the amount of [^3 H]dihydro-alprenolol ([^3 H]-DHA) bound."}
{"compound": "CNCCC(Oc1ccc(C(F)(F)F)cc1)c1ccccc1", "note": "(stereo not shown) [Fluoxetine, fluoxetine]", "values": [{"measurement": "[3H]-DHA Specifically Bound", "setting": "A) 14 days, fluoxetine 10 mg/kg, saline control 41.8 ± 1.4, * p<0.05 vs saline, + P<0.05 vs desipramine", "value": "37.9 ± 1.8", "unit": "fmol/mg protein"}, {"measurement": "% Control ([3H]-DHA specifically bound)", "setting": "A) 14 days, fluoxetine 10 mg/kg", "value": 91, "unit": "% Control"}, {"measurement": "[3H]-DHA Specifically Bound", "setting": "B) 4 days, fluoxetine 10 mg/kg bid, saline control 54.6 ± 3.1, * p<0.05 vs saline", "value": "51.8 ± 1.7", "unit": "fmol/mg protein"}, {"measurement": "% Control ([3H]-DHA specifically bound)", "setting": "B) 4 days, fluoxetine 10 mg/kg bid", "value": 95, "unit": "% Control"}]}
